From the SangsterLogP compilation

What was measured:
[1] = method code SF, from DOI: 10.1016/s0960-894x(04)00268-9, PMID: 15109667; settings: pH 7.4
[2] = method code SF, from PMID: 8999431; settings: pH 7.4
[3] = not given; remark: listed apart in the source
[4] = method code SF-AS, from DOI: 10.1016/s0026-895x(25)13808-x, PMID: 93689
[5] = method code SF-AS, from DOI: 10.1007/bf02857814, PMID: 1608986
[6] = method code SF-AS, from DOI: 10.1016/0223-5234(94)90120-1; settings: pH 7.4
[7] = method code SF-HPLC, from Thijssen, W. (1981). The relationship between Log P, Rm, log k' and the constants pi and f: a study on penicillins. Eur J Med Chem, 16(5)449-452.
[8] = method code SF-HPLC, from DOI: 10.1584/jpestics.11.469
[9] = method code RP-HPLC, from DOI: 10.1021/jm970292n, PMID: 9371243
[10] = method code SF-AS, from DOI: 10.1006/pest.1994.1014
[11] = not given; remark: listed apart in the source
[12] = not given; remark: listed apart in the source
[13] = method code …, from Wiggins, H.; Karcher, A.; Michael Wilson, J.; Robb, I. (2008). Determining Octanol/Water Partitioning Coefficients for Industrial Surfactants. Proc. 15th Annual International Petroleum & Biofuels …
[14] = method code SF, from DOI: 10.1002/jps.2600830715, PMID: 7965680
[15] = not given; remark: listed apart in the source
[16] = method code SF-AS, from DOI: 10.3390/molecules16097565, PMID: 21894089
[17] = method code SF-GLC, from DOI: 10.1023/a:1015803202857, PMID: 2395795
[18] = not given; remark: listed apart in the source
[19] = not given; remark: listed apart in the source
[20] = method code SF-HPLC, from DOI: 10.1016/0378-5173(94)90060-4; settings: pH 5.0
[21] = method code SF-AS, from DOI: 10.1021/jm9800301, PMID: 9748357; settings: pH 7.4
[22] = method code SF-HPLC, from DOI: 10.1016/j.jpba.2011.06.023, PMID: 21782368; settings: pH 7.4

CC(=O)OC(CC#CCS(=O)(=O)c1ccc([N+](=O)[O-])cc1)Cn1ccnc1[N+](=O)[O-] (stereo unspecified)
logD [1]: 1.18

NS(=O)(=O)c1cc(Cl)c(Nc2nc3ccncc3c3c(=O)[nH]ccc23)c(Cl)c1
logP: 1.17

CCC(C)C(NC(=O)c1cn(CC)c2nc(C)ccc2c1=O)C(=O)OC (stereo unspecified)
logD [2]: 2.64

C[C@]12CC[C@@H]3c4ccc(O)cc4CC[C@H]3[C@@H]1C[C@@H](O)[C@@H]2O
logP [3]: 2.45

CC(C)(C)[C@]1(O)CCN2CC3c4ccccc4CCc4cccc(c43)C2C1 (stereo partly specified)
logP [4]: 4.35

CCn1cc(C(=O)NC(Cc2c[nH]cn2)C(=O)OC)c(=O)c2ccc(C)nc21 (stereo unspecified)
logP [5]: 0.31

S=C1SCN(Cc2ccccc2)CN1Cc1ccccc1
logD [6]: 4.9

Cc1onc(-c2c(Cl)cccc2Cl)c1C(=O)NC1C(=O)N2C1SC(C)(C)C2C(=O)O (stereo unspecified)
logP [7]: 2.89

CCOC(=O)C(C)Oc1ccc(Oc2cnc3cc(C(F)(F)F)ccc3n2)cc1 (stereo unspecified)
logP [8]: 4.37

CC(=O)Oc1cccc2cc3cccc(OC(C)=O)c3c(OC(C)=O)c12
logP [9]: 2.02

CC(C)(C)N(NC(=O)c1ccccc1Cl)C(=O)c1ccccc1Cl
logP [10]: 2.75

COC(=O)C(C)(C)Oc1ccc(C(=O)c2ccc(Cl)cc2)cc1
logP [11]: 4.27

CN(C)CCC=C1c2ccccc2CCc2ccccc21
logP [12]: 5.04

CCCCCCCCOCCOCCOCCOCCO
logP [13]: 2.68

CC1(C)CC(NC(=O)C(Cc2ccccc2)NC(=O)N(CCCl)N=O)CC(C)(C)N1O (stereo unspecified)
logP [14]: 2.3

CCOC(=O)C(C)Oc1ccc(Oc2cnc3ccccc3n2)cc1 (stereo unspecified)
logP [8]: 3.48

CN(C)CCC=C1c2ccccc2CSc2ccccc21
logP [12]: 4.49

O=C1CC[C@@](c2ccccc2)(C2CCN(Cc3ccccc3)CC2)C(=O)N1
logP [15]: 3.55

CC(C)c1ccc(N2C(=O)C(=O)N([C@H](C)c3nc4ccc(F)cc4s3)C2=O)cc1
logP [16]: 1.64

CC(C)=CCN1CC[C@@]2(C)c3cc(O)ccc3C[C@@H]1[C@@H]2C
logP [17]: 3.31

Fc1ccccc1C1=NCC(=S)N(CC(F)(F)F)c2ccc(Cl)cc21
logP [18]: 4.03

CCCCCCCCCCCCOCCOCCOCCOCCOCCOCCO
logP [13]: 4.81

CN1CCN(C2=Nc3cc(Cl)ccc3Nc3ccccc32)CC1
logP [4]: 3.32

C=CCOc1ccccc1OCC(CNC(C)C)OC(=O)/C=C/C (stereo unspecified)
logP [19]: 3.65

C=CCOc1ccccc1OCC(CNC(C)C)OC(=O)CCCC (stereo unspecified)
logP [19]: 4

CCCOC(=O)n1c(NC(=O)OC)nc2cc(C(=O)c3ccccc3)ccc21
logD [20]: 3.43

CCn1cc(C(=O)NC(C(=O)OC)C(C)C)c(=O)c2ccc(C)nc21 (stereo unspecified)
logD [2]: 3.61

O=C1c2c(O)cccc2Cc2cccc(-c3ccccc3)c21
logP [9]: 3.99

COc1ccc(CNC(=O)C(=O)c2c[nH]c3ccc([N+](=O)[O-])cc23)cc1
logD [21]: 2.17

O=C(NCc1ccc(F)cc1)C(=O)c1c[nH]c2ccccc12
logD [21]: 2.88

CC(C)OC(=O)CC(CNC(=O)OC(C)(C)C)c1ccc(Cl)cc1 (stereo unspecified)
logD [22]: 3.4
